system: Human subcutaneous adipocytes; test: Adipocyte lipolysis assay (suppression of isoproterenol-stimulated fatty acid release); assay type: cell-based; conditions: Homo sapiens, Adipocyte; test compound concentration giving 50% fatty acid concentration reduction percentage in culture supernatant; 1 μM isoproterenol, 5 hours incubation; reduction by 100 μM nicotinic acid set at 100%
Source text: The suppressive or promoting activity of a test compound on the lipolysis of neutral fat can be assayed according to an adipocyte lipolysis assay as a cell line assay. If a beta adrenoceptor is stimulated with isoproterenol or the like in adipocytes, lipolysis action in which neutral fat accumulated in the cells is decomposed into fatty acid and glycerol can be promoted, and as a result, the amount of such fatty acid or glycerol released out of the cells can be increased. When a test compound that suppresses lipolysis is added to adipocytes, lipolysis-promoting action by isoproterenol stimulation is reduced, and the concentration of fatty acid or glycerol in a medium is decreased. Accordingly, the suppressive activity of a test compound on lipolysis can be assayed by measuring the reduction percentage of the fatty acid concentration or glycerol concentration in a culture supernatant. Likewise, the promoting activity of a test compound on lipolysis can be assayed by measuring the increase percentage of the fatty acid concentration or glycerol concentration in a medium.
• (1) Human subcutaneous adipocytes disseminated onto a 96 well (Dainippon Sumitomo Pharma Co., Ltd.: F-SA-1096) • (2) Adipocyte Maintenance Medium (Dainippon Sumitomo Pharma Co., Ltd.: AM 1) • (3) Lipolysis assay buffer [137 mM NaCl, 5 mM KCl, 4.2 mM NaHCO3, 1.3 mM CaCl2, 0.5 mM KH2PO4, 0.5 mM MgCl2, 0.5 mM MgSO4, 5 mM Glucose, 20 mM Hepes (pH 7.4), 1% BSA, 1 μM Isoproterenol] • (4) NEFA-C Test Wako (Wako Pure Chemical Industries, Ltd.) Preparation of Screening Materials
In this operation, the actual concentration of the test compound in the buffer was 1/1000 of the above-described concentration.
The above-described subcutaneous adipocytes were cultured in 200 μL of an Adipocyte Maintenance Medium in each well for 7 days. During this culturing operation, the medium was exchanged with a fresh one every 3 days. The medium was exchanged by discarding 100 μL of the medium in each well and then adding 100 μL of a fresh Adipocyte Maintenance Medium to the well. Thereafter, the adipocytes were washed with a Lipolysis assay buffer. Subsequently, 50 μL of a Lipolysis assay buffer that contained the above-described test compound was added to each well, and it was then incubated for 5 hours. In order to obtain the measurement value of the test compound in each concentration, 5 wells on a 96-well plate were used with respect to each concentration. As a positive control of a compound having lipolysis suppressive activity, nicotinic acid was used with reference to a previous report [Green A et. al., J. Biol. Chem., 1992, 267(5), 3223-9].
40 μL of a culture supernatant was extracted from each well, and the fatty acid concentration in the supernatant was then measured. Such fatty acid concentration was measured as follows, using the above-described NEFA-C Test Wako. 80 μL of liquid A included in the kit was added to 40 μL of the culture supernatant extracted from each well, and the obtained mixture was then incubated at 37° C. for 10 minutes. Thereafter, 160 μL of liquid B was added, and the obtained mixture was further incubated at 37° C. for 10 minutes. Thereafter, the absorbance at a wavelength of 550 nm was measured. At the same time, a standard fatty acid solution included in the kit was diluted to prepare a dilution series having a volume of 40 μL. According to the same operations as described above, liquid A and liquid B were added, and the absorbance was then measured. In accordance with instructions included with the kit, a calibration curve was prepared. Based on the thus prepared calibration curve, the fatty acid concentration in the culture supernatant was calculated. The reduction percentage of the fatty acid concentration was calculated with the following formula, setting the reduction percentage obtained by addition of 100 μM (final concentration) of nicotinic acid at 100%. […]

IC50	SMILES
29 nM	CCn1cc(NC(=O)C(F)Cc2cnc(-c3ccc(O)cc3)s2)c(C(=O)O)c1 (racemic) [Example 22, 4-{3-[2-(4-Hydroxyphenyl)thiazol-5-yl]-2-fluoropropanoyl}amino-1-ethylpyrrole-3-carboxylic acid]
1100 nM	Cn1cc(NC(=O)CCc2ccc(-c3ccc(O)cc3)cc2)c(C(=O)O)c1 [Example 1, 4-{3-[4-(4-Hydroxyphenyl)phenyl]propanoyl}amino-1-methylpyrrole-3-carboxylic acid]
535 nM	Cn1cc(NC(=O)CCc2ccc3c(Cl)c(O)ccc3c2)c(C(=O)O)c1 [Example 2, 4-[3-(5-Chloro-6-hydroxy-2-naphthyl)propanoyl]amino-1-methylpyrrole-3-carboxylic acid]
7 nM	Cn1cc(NC(=O)CCc2nc(-c3ccc(O)cn3)no2)c(C(=O)O)c1 [Example 3, 4-{3-[(5-Hydroxypyridin-2-yl)-1,2,4-oxadiazol-5-yl]propanoyl}amino-1-methylpyrrole-3-carboxylic acid]
232 nM	Cn1cc(NC(=O)CCc2cnc(-c3ccc(O)cc3)o2)c(C(=O)O)c1 [Example 4, 4-{3-[2-(4-Hydroxyphenyl)oxazol-5-yl]propanoyl}amino-1-methylpyrrole-3-carboxylic acid]
663 nM	Cn1cc(NC(=O)CCc2cnc(-c3ccccc3)s2)c(C(=O)O)c1 [Example 5, 4-{3-(2-Phenylthiazol-5-yl)propanoyl}amino-1-methylpyrrole-3-carboxylic acid]
24 nM	Cn1cc(NC(=O)CCc2cnc(-c3ccc(O)cc3)s2)c(C(=O)O)c1 [Example 6, 4-{3-[2-(4-Hydroxyphenyl)thiazol-5-yl]propanoyl}amino-1-methylpyrrole-3-carboxylic acid]
1500 nM	Cn1cc(NC(=O)CCc2sc(-c3ccccc3)nc2Cl)c(C(=O)O)c1 [Example 7, 4-[3-(4-Chloro-2-phenylthiazol-5-yl)propanoyl]amino-1-methylpyrrole-3-carboxylic acid]
76 nM	Cn1cc(NC(=O)CCc2sc(-c3ccc(O)cc3)nc2Cl)c(C(=O)O)c1 [Example 8, 4-{3-[4-Chloro-2-(4-hydroxyphenyl)thiazol-5-yl]propanoyl}amino-1-methylpyrrole-3-carboxylic acid]
125 nM	Cn1cc(NC(=O)CCc2cnc(-c3ccc(O)c(F)c3)s2)c(C(=O)O)c1 [Example 9, 4-{3-[2-(4-Hydroxy-3-fluorophenyl)thiazol-5-yl]propanoyl}amino-1-methylpyrrole-3-carboxylic acid]
151 nM	Cn1cc(NC(=O)CCc2cnc(-c3ccc(O)c(Cl)c3)s2)c(C(=O)O)c1 [Example 10, 4-{3-[2-(3-Chloro-4-hydroxyphenyl)thiazol-5-yl]propanoyl}amino-1-methylpyrrole-3-carboxylic acid]
88 nM	CCCCn1cc(NC(=O)CCc2cnc(-c3ccc(O)cn3)o2)c(C(=O)O)c1 [Example 11, 4-{3-[2-(5-Hydroxypyridin-2-yl)oxazol-5-yl]propanoyl}amino-1-butylpyrrole-3-carboxylic acid]
29 nM	CCn1cc(NC(=O)CCc2nc(-c3ccc(O)cc3)no2)c(C(=O)O)c1 [Example 12, 4-{3-[3-(4-Hydroxyphenyl)-1,2,4-oxadiazol-5-yl]propanoyl}amino-1-ethylpyrrole-3-carboxylic acid]
40 nM	CCn1cc(NC(=O)CCc2cnc(-c3ccc(O)cc3)s2)c(C(=O)O)c1 [Example 13, 4-{3-[2-(4-Hydroxyphenyl)thiazol-5-yl]propanoyl}amino-1-ethylpyrrole-3-carboxylic acid]
255 nM	O=C(CCc1cnc(-c2ccccc2)s1)Nc1cn(CCF)cc1C(=O)O [Example 14, 4-[3-(2-Phenylthiazol-5-yl)propanoyl]amino-1-(2-fluoroethyl)pyrrole-3-carboxylic acid]
2 nM	O=C(CCc1nc(-c2ccc(O)cn2)no1)Nc1cn(Cc2cc(F)cc(F)c2)cc1C(=O)O [Example 15, 4-{3-[(5-Hydroxypyridin-2-yl)-1,2,4-oxadiazol-5-yl]propanoyl}amino-1-(3,5-difluorobenzyl)pyrrole-3-carboxylic acid]
29 nM	O=C(CCc1nc(-c2ccc(O)cc2)no1)Nc1cn(Cc2cc(F)cc(F)c2)cc1C(=O)O [Example 16, 4-{3-[(4-Hydroxyphenyl)-1,2,4-oxadiazol-5-yl]propanoyl}amino-1-(3,5-difluorobenzyl)pyrrole-3-carboxylic acid]
49 nM	CCCCn1cc(C(=O)O)c(NC(=O)CCc2nc(-c3ccc(O)cn3)no2)n1 [Example 17, 5-{3-[(5-Hydroxypyridin-2-yl)-1,2,4-oxadiazol-5-yl]propanoyl}amino-2-butylpyrazol-4-carboxylic acid]
9 nM	COCCCn1cc(NC(=O)CCc2cnc(-c3ccc(O)cc3)s2)c(C(=O)O)c1 [Example 18, 4-{3-[2-(4-Hydroxyphenyl)thiazol-5-yl]propanoyl}amino-1-(3-methoxypropyl)pyrrole-3-carboxylic acid]
93 nM	CCn1cc(NC(=O)CCc2cnc(-c3ccc(O)cc3C)s2)c(C(=O)O)c1 [Example 19, 4-{3-[2-(4-Hydroxy-2-methylphenyl)thiazol-5-yl]propanoyl}amino-1-ethylpyrrole-3-carboxylic acid]
41 nM	CCn1cc(NC(=O)CCc2sc(-c3ccc(O)cc3O)nc2Cl)c(C(=O)O)c1 [Example 21, 4-{3-[4-Chloro-2-(2,4-dihydroxyphenyl)thiazol-5-yl]propanoyl}amino-1-ethylpyrrole-3-carboxylic acid]
20 nM	CCn1cc(NC(=O)CCn2cnc(-c3ccccc3)c2C)c(C(=O)O)c1 [Example 24, 4-{3-(4-Phenyl-5-methylimidazol-1-yl)propanoyl}amino-1-ethylpyrrole-3-carboxylic acid]
10 nM	CCn1cc(NC(=O)C(F)Cc2cnn(-c3ccccc3)c2C)c(C(=O)O)c1 (stereo not drawn) [Example 26, 4-[2-Fluoro-3-(5-methyl-1-phenylpyrazol-5-yl)propanoyl]amino-1-ethylpyrrole-3-carboxylic acid]
36 nM	CCc1c(CC(F)C(=O)Nc2cn(CC)cc2C(=O)O)cnn1-c1ccccc1 (stereo not drawn) [Example 27]
19 nM	CCc1c(-c2ccccc2)ncn1CCC(=O)Nc1cn(CC)cc1C(=O)O [Example 28, 4-{3-(4-Phenyl-5-ethylimidazol-1-yl)propanoyl}amino-1-ethylpyrrole-3-carboxylic acid]
42 nM	CCn1cc(NC(=O)CCc2cnn(-c3ccccc3)c2C2CC2)c(C(=O)O)c1 [Example 29]
42 nM	CCn1cc(NC(=O)C(F)Cc2cnn(-c3ccccc3)c2C2CC2)c(C(=O)O)c1 (stereo not drawn) [Example 30]
7 nM	CCn1cc(NC(=O)CCc2onc(-c3ccc(O)cc3)c2Cl)c(C(=O)O)c1 [Example 33, 4-{3-[4-Chloro-(4-hydroxyphenyl)isoxazol-5-yl]propanoyl}amino-1-ethylpyrrole-3-carboxylic acid]

same assay, conditions: test compound concentration giving 50% fatty acid concentration reduction percentage in culture supernatant; 1 μM isoproterenol, 5 hours incubation; reduction by 100 μM nicotinic acid set at 100%

IC50	SMILES
103 nM	CCn1cc(NC(=O)C(F)Cc2cnc(-c3ccc(O)cc3)s2)c(C(=O)O)c1 (single isomer, unassigned; (+)) [Example 23b, (+)-4-{3-[2-(4-Hydroxyphenyl)thiazol-5-yl]-2-fluoropropanoyl}amino-1-ethylpyrrole-3-carboxylic acid]
15 nM	CCn1cc(NC(=O)C(F)Cc2cnc(-c3ccc(O)cc3)s2)c(C(=O)O)c1 (single isomer, unassigned; (-)) [Example 23a, (−)-4-{3-[2-(4-Hydroxyphenyl)thiazol-5-yl]-2-fluoropropanoyl}amino-1-ethylpyrrole-3-carboxylic acid]

Source: patent publication US8648103B2, “Nitrogen-containing aromatic heterocyclyl compound” (Daiichi Sankyo Company, Limited, priority 2008, dated 2014)
